Assay results taken from patent US20120058133A1, “INHIBITION OF TRNA SYNTHETASES AND THERAPEUTIC APPLICATIONS THEREOF” (President and Fellows of Harvard College, priority 2009, published 2012).
“Also recorded” adds a separate entry of the source.

Experiments:
[1] = system: translation in rabbit reticulocyte lysate; experiment: In vitro translation in rabbit reticulocyte lysate (RRL); type: biochemical; conditions: for rescue of translation inhibition by added amino acids: excess amino acids (1-2 mM)
Protocol: FIG. 23. HF and FF inhibit prolyl tRNA synthetase activity in vitro. […] Rabbit reticulocyte lysate (RRL) was incubated with luciferase mRNA and translation quantitated in a luminescence assay. A high concentration of mixed or individual amino acids (1 mM of each) was added to rescue translational inhibition. AA Mix 1: Asn, Arg, Val, Glu, Gly; AA Mix2: Lys, Ile, Tyr, Asp, Trp; Mix 3: His, Met, Leu, Ala, Thr; Mix 4: Ser, Phe, Pro, Gln. […] Note log scale of y axis.
Inhibitors (FIG. 22) and proline were assayed as described in FIG. 23A. Note log scale at Y axis. Error bars reflect standard deviation of triplicate determinations.
Short myc-tagged polypeptides of identical sequence (see Example 9, “Materials and Methods”) with the exception that NoPro lacks proline, while ProPro contains a proline dipeptide, were translated in RRL in the presence of indicated inhibitors. Translation was examined by anti-myc Western blot.
Note log scale of Y axis.
Translation in vitro was performed using rabbit reticulocyte lysates and luciferase mRNA as template. Translation was measured as arbitrary units of luciferase activity using a luminometer based luminescence assay. Log scale presentation of background-subtracted data is shown.

[2] = system: Smad2 phosphorylation; experiment: TGFβ-stimulated Smad2 phosphorylation in fibroblasts; type: cell-based, mouse
Protocol: FIG. 30. Proline addition to fibroblasts rescues HF-inhibition of TGFβ Signaling. MEFs were treated with HF for 12 hours in the presence or absence of 2 mM proline, treated with 2 ng/mL TGFβ for 1 hour, and assayed for total Smad2 or pSmad2 by Western blot. Total and pSmad2 levels were quantitated using Image J software (bottom panel). Data are representative of three separate experiments.
FIG. 31. HF Dose response for pGCN2-induction and pSmad2-inhibition. Fibroblasts were treated for 12 hours with the indicated dose of HF and analyzed for Smad2 or GCN2 phosphorylation by Western blot. Data are representative of three separate experiments.
FIG. 32. pSmad2 inhibition by HF develops slowly over time. Fibroblasts were treated for the indicated time with 20 nM HF, then treated for 1 hr with 2 ng/mL TGFβ and analyzed for phosphorylation of Smad2 or GCN2 by Western blot. Data are representative of three separate experiments. Bottom panel: Western data in top panel were quantitated using Image J software.

[3] = system: adjuvant-driven EAE in wild-type B6 mice; experiment: Adjuvant-driven EAE (MOG33-55 immunization); type: in vivo, mouse
Excerpt: The ability of systemic HF treatment to block IL-17 expression and associated autoimmune inflammation in vivo was examined using two distinct models of experimental autoimmune encephalomyelitis (EAE). […] The second model, a passive model of EAE induction, is initiated by the transfer of myelin proteolipid protein (PLP)-reactive T cells into lymphopenic hosts.
Adjuvant-driven EAE was induced in 8 week-old wild-type B6 mice purchased from Charles River laboratories (Kingston, N.Y.) by subcutaneous injection of […] peptide emulsified in Incomplete Freund's Adjuvant (IFA) plus 5 mg/ml heat-killed M. tuburculosis (BD Biosciences) in both dorsal flanks as described in Veldhoen et al. (Nat. Immunol. 7(11):1151-1156, 2006).
Mice were injected daily with HF (2 μg/mouse) or vehicle control (DMSO) i.p. Clinical signs of EAE were assessed according to the following score: 0, no signs of disease; 1, flaccid tail; 2, weak gait/hind limb paresis; 3, hind limb paralysis; 4, tetraplegia; 5, moribund. Cytokine production during EAE was determined either in peripheral T cells isolated from spleen or lymph nodes of mice prior to disease onset (day 6-10) or in mononuclear cells isolated from the brain and spinal cords of mice with severe disease (clinical score ≧2) between days 15-20. Briefly, splenocytes were stained for intracellular cytokines following erythrocyte lysis with ammonium chloride buffer. T cells were isolated from brain and spinal cords of mice with active EAE following perfusion with cold PBS. Minced CNS tissue was digested with liberase C1 (0.33 mg/ml, Roche Diagnostics) or collagenase D (10 mg/ml, Roche Diagnostics) at 37° C. for 30-45 minutes. Cell suspensions were passed through 70 μm cell strainers (VWR) and fractionated by 70%/30% Percoll gradient centrifugation. Mononuclear cells were collected from the interphase, washed and used for intracellular cytokine analysis.

[4] = system: amino acid starvation response in splenocytes; experiment: In vivo AAR activation in splenocytes of HF-injected mice; set-up: species or system mouse; conditions: i.p. injection, 6 hours
Protocol: FIG. 20F, left panel, depicts western blot analysis of protein from cells of wild-type mice injected i.p. with vehicle (DMSO) or […] HF. Spleens were harvested 6 hours post injection, red blood cells were removed by NH4Cl lysis buffer and immunoblotting for phosphorylated or total eIF2a was performed on whole cell extracts. FIG. 20F, right panel is a graph depicting levels of AAR-associated gene expression (Asns, Gpt2, eIF4Ebp1) analyzed by quantitative real-time PCR using cDNA from splenocytes of mice treated with DMSO or HF as above. Expression of AAR-associated transcripts were normalized to Hprt levels and data are presented as mean relative expression from duplicate samples ±SD. All data represent 2-3 similar experiments.

[5] = 2 μg HF daily, ˜0.1 mg/kg, i.p.

## O=C(CC1NCCCC1O)Cn1cnc2cc(Br)c(Cl)cc2c1=O (racemic) [HF, halofuginone]
[1]
  translation of NoPro polypeptide: had no effect on the translation of NoPro
  translation of ProPro polypeptide: prevented translation of ProPro
  rescue of translation inhibition by added amino acids: only proline could restore translation
[1]; 80 ng or 0.5 μg EPRS
  rescue of translation inhibition by added purified EPRS: rescued HF/FF-inhibition of protein translation
[1]; 400 nM halofuginone
  translation of luciferase mRNA: inhibition of translation
[1]; data not shown
  eIF2-alpha phosphorylation in RRL: no increase
[1]; listed as halofuginone
  rescue of translation inhibition by added amino acids: rescues inhibition of translation by halofuginone
[1]; standard amino acid mix
  translation of luciferase RNA in RRL: inhibited the translation of luciferase RNA
[2]; 20 nM HF
  time course of Smad2 inhibition versus GCN2 phosphorylation: much slower
[2]; 2 mM proline
  reversal of Smad2 phosphorylation inhibition by proline: reversed by the addition of proline
[2]; 12 hours HF, same dose range as GCN2 phosphorylation
  TGF-beta-stimulated Smad2 phosphorylation: reduced TGF-beta-stimulated Smad2 phosphorylation
[3]; 2 μg HF daily i.p.
  CD4+ T cell infiltrates into the CNS: overall reduction
  IFNγ expression in the same T cell populations: did not affect IFNγ expression; also recorded: had no effect on the number of IFNγ T-cells
  T cell-derived IL-17 expression in lymph nodes and CNS tissue: reduction; also recorded: selectively reduced the number of IL-17 expressing T cells
[3]; [5]
  frequency of disease onset: significantly reduced
  severity of adjuvant-driven EAE disease: significantly reduced
[3]; 17 days after immunization with MOG
  clinical score of mice analysed: 0
[3]; day 18
  clinical score of mice analysed: 0
[4]
  eIF2α phosphorylation and AAR-associated transcripts in splenocytes ex vivo: increased eIF2α phosphorylation and expression of AAR-associated transcripts
